According to PubChem BioAssay AID330 (DTP/NCI, 2004):
Values joined by “and” are separate entries in the source; they are usually repeats but may differ in a detail not shown here. Equal entries are not always repeated. Toxic doses and inconclusive results are not listed. The calls were made as follows: active = survival T/C of 150% or more; inactive = T/C below 125% in these data.

Test system: P388 leukemia ip, CD2F1 mice, survival T/C
Assay: NCI In Vivo Anticancer Drug Screen. Data for tumor model P388 Leukemia (intraperitoneal) in CD2F1 (CDF1) mice
Settings: endpoint: median survival time, higher = longer survival
How it was run: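 Mice carrying the transplanted tumor received test compound or vehicle. Survival was recorded in each group, and the value is the treated-group measurement divided by that of the vehicle-treated control group.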

[1] = dose: 50.0 mg/kg/injection, schedule: Q01DX009 (ip), vehicle: saline
[2] = dose: 50.0 mg/kg/injection, schedule: Q01DX005 (ip), vehicle: saline with Tween-80
[3] = dose: 50.0 mg/kg/injection, schedule: Q01DX009 (ip), vehicle: saline with Tween-80
[4] = dose: 100.0 mg/kg/injection, schedule: Q01DX009 (ip), vehicle: saline with Tween-80
[5] = dose: 200.0 mg/kg/injection, schedule: Q01DX009 (ip), vehicle: saline with Tween-80
[6] = dose: 50.0 mg/kg/injection, schedule: Q01DX005 (ip), vehicle: saline
[7] = dose: 100.0 mg/kg/injection, schedule: Q01DX005 (ip), vehicle: saline
[8] = dose: 200.0 mg/kg/injection, schedule: Q01DX005 (ip), vehicle: saline
[9] = dose: 60.0 mg/kg/injection, schedule: Q01DX005 (ip), vehicle: saline with Tween-80
[10] = dose: 120.0 mg/kg/injection, schedule: Q01DX005 (ip), vehicle: saline with Tween-80
[11] = dose: 240.0 mg/kg/injection, schedule: Q01DX005 (ip), vehicle: saline with Tween-80
[12] = dose: 100.0 mg/kg/injection, schedule: Q01DX009 (ip), vehicle: saline
[13] = dose: 200.0 mg/kg/injection, schedule: Q01DX009 (ip), vehicle: saline
[14] = dose: 50.0 mg/kg/injection, schedule: Q01DX005 (ip), vehicle: Klucel (hydroxypropylcellulose) (HPC)

Measured: T/C

OC1C[n+]2cc3ccccn3c2-c2cccc[n+]21 (stereo unspecified)
inactive: dose: 12.5 mg/kg/injection, schedule: Q01DX009 (ip), vehicle: saline 94 % of control | dose: 25.0 mg/kg/injection, schedule: Q01DX009 (ip), vehicle: saline 97 % of control | [1] 100 % of control

CCCN1CCN(c2ccc([N+](=O)[O-])c3no[n+]([O-])c23)CC1
inactive: dose: 1.25 mg/kg/injection, schedule: Q01DX009 (ip), vehicle: saline 98 % of control and 97 % of control | dose: 2.5 mg/kg/injection, schedule: Q01DX009 (ip), vehicle: saline 100 % of control and 107 % of control | dose: 5.0 mg/kg/injection, schedule: Q01DX009 (ip), vehicle: saline 100 % of control and 108 % of control | dose: 10.0 mg/kg/injection, schedule: Q01DX009 (ip), vehicle: saline 110 % of control and 120 % of control

CC(=O)OC1CCC2(C)C(=CCC3C2CCC2(C)C3CC3N(c4ccccc4Cl)C32C(C)=O)C1 (stereo unspecified)
inactive: dose: 25.0 mg/kg/injection, schedule: Q01DX001 (ip), vehicle: saline with Tween-80 93 % of control | dose: 50.0 mg/kg/injection, schedule: Q01DX001 (ip), vehicle: saline with Tween-80 95 % of control | dose: 100.0 mg/kg/injection, schedule: Q01DX001 (ip), vehicle: saline with Tween-80 99 % of control and 90 % of control | dose: 400.0 mg/kg/injection, schedule: Q01DX001 (ip), vehicle: saline with Tween-80 89 % of control

C/C(=C\COc1cc(O)c2c(c1)C(=O)c1cc(C)cc(O)c1C2=O)CCC1OC1(C)C (stereo unspecified)
inactive: dose: 2.5 mg/kg/injection, schedule: Q01DX005 (ip), vehicle: Klucel (hydroxypropylcellulose) (HPC) 98 % of control | dose: 5.0 mg/kg/injection, schedule: Q01DX005 (ip), vehicle: Klucel (hydroxypropylcellulose) (HPC) 93 % of control | dose: 10.0 mg/kg/injection, schedule: Q01DX005 (ip), vehicle: Klucel (hydroxypropylcellulose) (HPC) 90 % of control | dose: 20.0 mg/kg/injection, schedule: Q01DX005 (ip), vehicle: Klucel (hydroxypropylcellulose) (HPC) 88 % of control

CCCCC(=S)SSC(C)(C)C
inactive: dose: 12.5 mg/kg/injection, schedule: Q01DX005 (ip), vehicle: saline with Tween-80 108 % of control | dose: 25.0 mg/kg/injection, schedule: Q01DX005 (ip), vehicle: saline with Tween-80 115 % of control | [2] 100 % of control and 114 % of control

Cc1c(-c2ccccc2)n(O)c(-c2ccc(N(C)C)cc2)[n+]1[O-]
inactive: [3] 98 % of control | [4] 92 % of control | [5] 91 % of control

CCCCn1cnc2c(=S)nc[nH]c21
inactive: [2] 94 % of control | dose: 100.0 mg/kg/injection, schedule: Q01DX005 (ip), vehicle: saline with Tween-80 105 % of control | dose: 200.0 mg/kg/injection, schedule: Q01DX005 (ip), vehicle: saline with Tween-80 102 % of control

COC1OC(CO)C2OC12 (stereo unspecified)
inactive: [6] 93 % of control and 103 % of control | [7] 94 % of control and 100 % of control | [8] 88 % of control and 99 % of control

Cc1cc2n(n1)C(=O)CC(=O)C2
inactive: [9] 98 % of control | [10] 100 % of control | [11] 109 % of control

O=c1[nH]c2ncccc2c(O)c1-c1ccccc1
inactive: [1] 107 % of control | [12] 96 % of control | [13] 96 % of control

COC(=O)C1(C(C(=O)c2ccccc2)c2ccccc2)NC(=S)NC(=O)C1C#N (stereo unspecified)
inactive: [9] 100 % of control | [10] 105 % of control | [11] 100 % of control

CC(C)(C)c1cc(C(C)(C)C)c2[n+]([O-])ssc1-2
inactive: dose: 15.0 mg/kg/injection, schedule: Q01DX005 (ip), vehicle: saline with Tween-80 120 % of control | dose: 30.0 mg/kg/injection, schedule: Q01DX005 (ip), vehicle: saline with Tween-80 108 % of control | [9] 113 % of control and 95 % of control | [10] 97 % of control

COC(=O)/C(=C/c1ccc(/C=C(/C(=O)O)c2ccc(OC)cc2)o1)c1ccccc1
inactive: [9] 97 % of control | [10] 100 % of control | [11] 90 % of control

CCOC(=O)CCC(=O)N(CCCNc1c2ccccc2nc2c(OC)cccc12)CCCNc1c2ccccc2nc2c(OC)cccc12
inactive: dose: 1.25 mg/kg/injection, schedule: Q01DX009 (ip), vehicle: water 111 % of control | dose: 2.5 mg/kg/injection, schedule: Q01DX009 (ip), vehicle: water 116 % of control | dose: 20.0 mg/kg/injection, schedule: Q01DX009 (ip), vehicle: water 97 % of control

C=CCn1c(COc2c(I)cc(I)c3cccnc23)n[nH]c1=S
inactive: dose: 6.25 mg/kg/injection, schedule: Q01DX005 (ip), vehicle: Klucel (hydroxypropylcellulose) (HPC) 100 % of control and 96 % of control | dose: 12.5 mg/kg/injection, schedule: Q01DX005 (ip), vehicle: Klucel (hydroxypropylcellulose) (HPC) 108 % of control and 115 % of control | dose: 25.0 mg/kg/injection, schedule: Q01DX005 (ip), vehicle: Klucel (hydroxypropylcellulose) (HPC) 106 % of control | [14] 114 % of control

O=c1sc2ccccc2n1CN(CCO)Cn1c(=O)sc2ccccc21
inactive: [14] 91 % of control | dose: 100.0 mg/kg/injection, schedule: Q01DX005 (ip), vehicle: Klucel (hydroxypropylcellulose) (HPC) 89 % of control | dose: 200.0 mg/kg/injection, schedule: Q01DX005 (ip), vehicle: Klucel (hydroxypropylcellulose) (HPC) 90 % of control

N#Cc1ccc(OC(=O)Nc2ccc(F)cc2)cc1
inactive: [9] 106 % of control | [10] 104 % of control

C=C(CO)CC(CC(=C)CCS(=O)(=O)c1ccccc1)S(=O)(=O)c1ccccc1 (stereo unspecified)
inactive: [9] 94 % of control | [10] 106 % of control | [11] 100 % of control

Fc1ccccc1CSc1ncnc2nc[nH]c12
inactive: [3] 100 % of control | [4] 100 % of control | dose: 100.0 mg/kg/injection, schedule: Q04DX003 (ip), vehicle: saline with Tween-80 104 % of control | dose: 132.0 mg/kg/injection, schedule: Q04DX003 (ip), vehicle: saline with Tween-80 100 % of control | [5] 100 % of control

OCC12COCN1COC2
inactive: [1] 106 % of control and 92 % of control | [12] 106 % of control and 111 % of control | [13] 108 % of control and 118 % of control | dose: 400.0 mg/kg/injection, schedule: Q01DX009 (ip), vehicle: saline 123 % of control

N#CC1(C#N)C(C#N)(C#N)C12CCCCCC2
inactive: dose: 12.5 mg/kg/injection, schedule: Q04DX003 (ip), vehicle: Klucel (hydroxypropylcellulose) (HPC) 106 % of control | dose: 25.0 mg/kg/injection, schedule: Q04DX003 (ip), vehicle: Klucel (hydroxypropylcellulose) (HPC) 112 % of control | dose: 50.0 mg/kg/injection, schedule: Q04DX003 (ip), vehicle: Klucel (hydroxypropylcellulose) (HPC) 95 % of control

CC(C)NCC(O)c1cc(Br)c(Br)s1 (stereo unspecified)
inactive: [1] 98 % of control | [12] 102 % of control

CCCCNC(=O)C(C)O (stereo unspecified)
inactive: [6] 101 % of control | [7] 99 % of control | [8] 92 % of control

CC1(C)CCCC(C)(C)N1CC#CCON1C(=O)c2ccccc2C1=O
inactive: dose: 100.0 mg/kg/injection, schedule: Q04DX002 (ip), vehicle: Klucel (hydroxypropylcellulose) (HPC) 102 % of control | dose: 200.0 mg/kg/injection, schedule: Q04DX002 (ip), vehicle: Klucel (hydroxypropylcellulose) (HPC) 96 % of control | dose: 400.0 mg/kg/injection, schedule: Q04DX002 (ip), vehicle: Klucel (hydroxypropylcellulose) (HPC) 105 % of control

COC(=O)C1=C(C(=O)OC)C23C(=O)c4ccc(OC)c(OC)c4C1(OC)N2CCc1cc2c(cc13)OCO2 (stereo unspecified)
inactive: dose: 50.0 mg/kg/injection, schedule: Q04DX002 (ip), vehicle: saline with Tween-80 96 % of control | dose: 100.0 mg/kg/injection, schedule: Q04DX002 (ip), vehicle: saline with Tween-80 96 % of control | dose: 200.0 mg/kg/injection, schedule: Q04DX002 (ip), vehicle: saline with Tween-80 100 % of control
